Experimental findings from paper PMC7483518, “Destabilizing single chain major histocompatibility complex class I protein for repurposed enterokinase proteolysis” (Scientific Reports, 2020) are described below.

Read-outs that look alike come from different tables or passages of the source.

Test [1] deals with HLA-A*11:01 single chain protein. Type of test: biochemical, Human. The following applies: for EZ50kDa rank: HLA-A*11:01 single chain protein, 9-mer peptides. On the set-up: EZ50kDa / EZ50kD (pH 6.2) / EZ50kD (pH 8) / EZ50kD (normalised: EBV1101 = 1, EBV0201 = 0) / EZ50kDa rank: unit not given beside the values.
The target in test [2] is photolabile unchained HLA-A*11:01 pMHC-I protein (Homo sapiens, UniProt P04439, A114D/D185E/E176A/F33Y/L180Q/S129P/T187R). The test can be described thus: ELISA with photolabile unchained pMHC-I protein and UV irradiation. Format: binding. Particulars: for ELISA450nm: Table 2, 62.5 nM photolabile pMHC-I mixture, 5 μM peptide in PBS, UV 365 nm 2 × 5 min on ice, 2 h room temperature on anti-β2m plate, Abs450nm − Abs570nm, instability cutoff < 0.6. In general terms: In an ELISA, binding on a coated surface is turned into a signal by an enzyme label.
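Wherever EZ50kD (pH 6.2) is given: scaled with positive control peptide as 1 and negative control peptide as 0.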

With LVVDFSQFSR [reference compound], in test [1] (Table 2, pH 6.2, 37 °C, enterokinase, Eq. (4), instability cutoff < 0.3), the “EZ50kD (pH 6.2)” value was found to be 0.9461.
Turning to `Nc1nc(Nc2ccc3c(c2)CC[C@@H](N2CCCC2)CC3)nn1-c1cc2c(nn1)-c1ccccc1CCC2` [CS1046], in test [2] ([…], mean, STDEV), the EASY_mean is given as -0.001122.
In the case of “RTLSPRRR [putative peptide, Streptomyces sp, no IEDB entry]”, in test [2], the ELISA450nm stood at 0.1209.
On to RTQSPRRRR [reference compound], for which, in test [2], the ELISA450nm was 1.204.
With SVQPTFSVQR [reference compound], the “EZ50kD (pH 6.2)” value in test [1] (pH 6.2) is 1.051. Also, in test [1], the “EZ50kD (pH 8)” value stood at 0.7376.
For DLAQCFFCFK [reference compound], the ELISA450nm in test [2] worked out at 0.3956.
Consider ATVQGQNLK [reference compound], for which the “EZ50kD (pH 6.2)” value in test [1] (pH 6.2) is reported as 0.8968. Further, the “EZ50kD (pH 8)” value in test [1] is given as 0.767.
Turning to TMVMELIRMIK [reference compound], the ELISA450nm in test [2] is 0.748.
In the case of KTFVDLMRR [reference compound], in test [1] (pH 6.2), the “EZ50kD (pH 6.2)” value came to 0.8241. Further, the “EZ50kD (pH 8)” value in test [1] is 0.165.
For the compound “RTLSPRRRR [putative peptide, HBV, no IEDB entry]”, in test [2], the ELISA450nm is reported as 0.8658.
In test [1] (pH 6.2, 37 °C), AINSEMFLR [reference compound] yielded an EZ50kDa rank of 0.901. For the same compound, the “EZ50kD (pH 6.2)” value in test [1] (pH 6.2) amounted to 0.9012. In addition, the “EZ50kD (pH 8)” value in test [1] is recorded as 1.19.
For “TVVGRRGRSPR [putative peptide, HBV, no IEDB entry]”, the ELISA450nm in test [2] is given as 1.259.
For the compound TTYLGPLSCK [reference compound], in test [1] (pH 6.2), the “EZ50kD (pH 6.2)” value is 1.084. The “EZ50kD (pH 8)” value in test [1] was determined as 1.911.
For the compound LVSFLLLAGR [reference compound], the “EZ50kD (pH 8)” value in test [1] is 0.07206.
Regarding “MVWESGCTV [IEDB 140,054, Human; a known HLA-A*02:01 antigen, reference compound]”, the ELISA450nm in test [2] is given as 0.5937.
For ATYGWNLVK [reference compound], the “EZ50kD (pH 6.2)” value in test [1] (pH 6.2) stood at 0.8706. Moreover, in test [1], the “EZ50kD (pH 8)” value is 1.994.
Regarding MVSRLLLNR [reference compound], the “EZ50kD (pH 6.2)” value in test [1] (pH 6.2) stood at 1.196. Besides, the “EZ50kD (pH 8)” value in test [1] stood at 0.2396.
As to YVSAIAQTEK [reference compound], in test [1] (pH 6.2), the “EZ50kD (pH 6.2)” value was 0.3037.
As to GSLLDYVREHKD [CS1049], the EASY_mean in test [2] is -0.02126.
Take “STLPETTVIR [putative peptide, HBV, no IEDB entry]”: in test [2], the ELISA450nm is on record as 1.302.
In the case of GAMLFLISGK [reference compound], the “EZ50kD (pH 6.2)” value in test [1] (pH 6.2) amounted to 0.7468. In test [1], the “EZ50kD (pH 8)” value was found to be 1.036.
On the same counts, the results for AVQTKPGLFK [reference compound] are 0.955 and 1.546.
With MANEMGFLEK [reference compound], the “EZ50kD (pH 6.2)” value in test [1] (pH 6.2) was found to be 0.527.
With TSGSPIIDK [reference compound], the EZ50kDa rank in test [1] (pH 6.2, 37 °C) is on record as 0.795. The “EZ50kD (pH 6.2)” value in test [1] (pH 6.2) is on record as 0.7953. For the same compound, the “EZ50kD (pH 8)” value in test [1] is listed as 0.1596.
Consider FTNDSIISH [reference compound], for which the EZ50kDa rank in test [1] (pH 6.2, 37 °C) is given as 0.696. In addition, the “EZ50kD (pH 6.2)” value in test [1] (pH 6.2) was found to be 0.6961. Besides, in test [1], the “EZ50kD (pH 8)” value amounted to 0.1339.
Consider KSGAIKVLK [reference compound], for which the “EZ50kD (pH 6.2)” value in test [1] (pH 6.2) was 0.819. The “EZ50kD (pH 8)” value in test [1] is 0.4865.
The like results for TTKRDLGMSK [reference compound] were, in that order, 0.796 and 0.3796.
In the case of TLALEVAQQK [reference compound], the “EZ50kD (pH 6.2)” value in test [1] (pH 6.2) is on record as 0.7399. In addition, the “EZ50kD (pH 8)” value in test [1] stood at 0.4517.
For the compound VTRGAVLMHK [reference compound], in test [1] (pH 6.2), the “EZ50kD (pH 6.2)” value is 0.6228.
As to MATYGWNLVK [reference compound], the “EZ50kD (pH 6.2)” value in test [1] (pH 6.2) is recorded as 0.6384. In addition, the “EZ50kD (pH 8)” value in test [1] was found to be 0.007553.
With MSYTMCSGK [reference compound], the EZ50kDa rank in test [1] (pH 6.2, 37 °C) is on record as 1.198. For the same compound, in test [1] (pH 6.2), the “EZ50kD (pH 6.2)” value turned out to be 1.198. The “EZ50kD (pH 8)” value in test [1] was 1.094.
